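Cells were grown in 96-well plates and exposed to each compound for 48 hours at five concentrations; endpoints were interpolated linearly between bracketing concentrations, or set to the highest concentration if not reached. At the GI50, growth is halved. TGI is the concentration that stops growth completely.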
Tests used:
Test in all cases: DTP human tumour cell line panel, 48 h
[1] = tested on: NCI-H23 lung
[2] = tested on: M19-MEL melanoma
[3] = tested on: SK-MEL-28 melanoma
[4] = tested on: KM12 colon
[5] = tested on: NCI-H460 lung
[6] = tested on: SNB-19 CNS
[7] = tested on: MOLT-4 leukemia
[8] = tested on: HOP-92 NSCLC
[9] = tested on: HCT-116 colon
[10] = tested on: ACHN renal
[11] = tested on: TK-10 renal

Structure (SMILES)	TGI [1] [µM]	TGI [2] [µM]	TGI [3] [µM]	TGI [4] [µM]	TGI [5] [µM]	TGI [6] [µM]	TGI [7] [µM]	TGI [8] [µM]	TGI [9] [µM]	TGI [10] [µM]	TGI [11] [µM]	GI50 [1] [µM]	GI50 [3] [µM]	GI50 [10] [µM]	GI50 [4] [µM]	GI50 [5] [µM]	GI50 [6] [µM]	GI50 [7] [µM]	GI50 [8] [µM]	GI50 [11] [µM]
O=C(NC(Cc1ccc(I)cc1)C(=O)O)c1ccc(Br)cc1 (stereo unspecified)	> 100	> 100	> 100	> 100	> 100	> 100	> 100	> 100	> 100											
COc1ccc(/C(Cl)=C(\C=O)c2ccc(F)cc2)cc1OC	66.6	66.1	68.4		43	> 100	71.7	29.3	31	58.6	> 100									
Cc1[nH]c(=O)[nH]c(=O)c1/C=C/C(=O)O	> 1000	> 1000	> 1000	> 1000	> 1000	> 1000	> 1000	62.6	> 1000											
C[C@]12CCc3nc(Nc4ccccc4)sc3C1=CC[C@@H]1[C@@H]2CC[C@]2(C)/C(=N/NC(N)=S)CC[C@@H]12	> 100		> 100	> 100	> 100	> 100	> 100	> 100		> 100	> 100	6.15	4.49	3.67	6.17	6.14	10.3	1.88	5.59	46.4
COc1ccc2nc3ccccc3c(NCCCCCCN(CCCl)CCCl)c2c1		5.12	76.1	1.14	0.853	3.45			1.39		23.8									
COc1cc(Nc2c3ccccc3nc3ccccc23)ccc1NS(C)(=O)=O		22.3	20.4		12	48	> 100		> 100	14.8										
Cc1ccc(S(=O)(=O)OCC(=O)O)cc1	> 100		> 100		> 100	> 100	> 100	> 100	> 100	> 100	> 100									
COC(=O)C1=C(C(=O)OC)SC2(S1)C1=C(CCCC1)SC(C(=O)OC)=C2C(=O)OC	31.3		22.5	19	15.7	30.2	11.6	18.3	2.92	18.4	24.7									
Nc1ccc2[nH]c3c(-c4ccccc4)nccc3c2c1	> 100	> 100	> 100	> 100	> 100	> 100	22.8	> 100	> 100											
N=C(N)c1ccc(N=Nc2c(O)ccc3c2[nH]c2ccccc23)cc1	> 100		> 70.9			> 100	5.27	> 100	37.5	86.4	> 95.3									

Source: PubChem BioAssay (NCI)
